Laboratory results published in patent publication US20230372263A1, “METHODS AND COMPOSITIONS FOR TREATING AMYOTROPHIC LATERAL SCLEROSIS” (Amylyx Pharmaceuticals, Inc., priority 2022, published 2023).
Where two headings read alike, the source gives them in different places.

Legend:
[1] = Phase I single dose oral AMX0035 fasted/fed plasma pharmacokinetics and food effect (Protocol A35-002); format: in vivo, human; details: for Frel AUC(0-inf) / Frel AUC(0-last) / Frel Cmax: fed relative to fasted
Experimental: • Protocol AMX3500: sparse sampling in 87 subjects with ALS. Approximately 2 samples are collected for each subject, 1 or 4 hours post dose following 12 and 24 weeks of treatment. • Protocol A35-002: rich sampling in 14 healthy adults. Approximately 21 samples are collected over 24 hours for each subject on two occasions, once following a high fat meal and the other under fasting conditions.
A total of 14 healthy subjects were enrolled in order to have no fewer than 12 subjects complete. A predefined mix of gender was selected.
Each study period followed the same study design (FIG. 1). Subjects were screened for inclusion in the study up to 28 days before dosing. Subjects were admitted to the clinical unit during Study Day −2 for Period 1 and Day −1 for Period 2 and were dosed in the morning of Day 1. On the night prior to Period 1 the subjects in the fasted/fed or fed/fasted sequence were fasted for a minimum of 10 h prior to dosing.
The solution was stirred until the powder was mostly dissolved.
Any departures from the intended regimen were recorded in the eCRFs. All dose administrations were performed in the study center under the supervision of appropriately trained staff.
Subjects were provided with a light snack and were then fasted from all food and drink (except water) until the following morning, when they were provided with a high-fat breakfast. The breakfast was consumed over a maximum period of 25 min, and dosing occurred 30 min after the start of breakfast. Subjects were encouraged to eat their meal evenly over the 25 min period. For this trial the subject was deemed compliant if they consumed >80% of the high-fat standard breakfast.
The subjects in the 24-h baseline and in the fasted condition Period remained fasted up to 4 h post-dose and were offered a standardized meal to be taken between 4.00 and 5.00 h post-dose. Subjects in the fed condition were fasted overnight and received a high-fat standard breakfast 30 minutes pre-dose and then remained fasted for 4.00 to 5.00 h post-dose when they received a standardized meal.
Venous blood samples were withdrawn via an indwelling cannula or by venipuncture according to the time schedule presented in Table 5 Table, Table 6, and Table 7.
Blood samples of approximately 4 mL were collected into 4 mL BD Vacutainer Plastic K2EDTA Tubes with Lavender Hemogard Closure, and was gently inverted approximately 8 times. The tubes were then immediately stored on ice and processed within 60 min of collection by centrifugation at 1500 g for 10 min at 2 to 8° C. The resultant plasma was separated equally into 2 aliquots and transferred to 2 mL appropriately labelled primary and backup polypropylene cryovials.
Actual elapsed time from dosing was to be used for the final plasma PK parameter calculations after database lock.

[2] = Population pharmacokinetic model and simulations of PB and PAA (healthy subjects and ALS patients); parameters: species or system human; details: for Cmax, Mean: from individual Bayesian (post hoc) parameter estimates; for Cmax, 2.5th percentile / Cmax, 97.5th percentile / Cmax, Geometric mean / Cmax, Median: post hoc Bayesian estimates; for V, volume of distribution of PAA: population PK
Excerpt: The order of administration with and without food was randomly assigned. […] Subjects were advised to take the drug before a meal. […] No inter-occasion variability (IOV) was included.

[3] = single dose AMX0035 fasted, Geometric Mean
[4] = single dose AMX0035 fasted, Max
[5] = single dose AMX0035 fasted, Median
[6] = single dose AMX0035 fasted, Min
[7] = single dose AMX0035 fed, Geometric Mean
[8] = single dose AMX0035 fed, Median

Compound: O=C(O)Cc1ccccc1 [PAA, phenylacetate]
- T1/2 ([1]; Table 1: fasted, geometric mean (CV%), terminal half-life): 48.8 min
- Tmax ([1]; Table 1: fasted, median (range)): 150 min
- AUC(0-inf) ([1]; both sexes, human, in vivo, Table 1: fasted, geometric mean (CV%), read-out: AUC(0-inf)): 83400 ng·h/mL
- half-life ([1]; both sexes, human, in vivo, Table 1: fasted, geometric mean (CV%), terminal half-life, read-out: T1/2 (converted)): 48.6 min
- half-life ([1]; both sexes, human, in vivo, fasted, read-out: elimination half-lives (range)): 41.4 to 57 min
- half-life ([1]; both sexes, human, in vivo, fed, read-out: elimination half-lives (range)): 36 to 62.4 min
- Cmax ([1]; both sexes, human, in vivo, po, Table 1: single oral dose ALBRIOZA, healthy subjects, fasted, geometric mean (CV%), read-out: Cmax): 26400 ng/mL
- AUC(0-inf) ([1]; both sexes, human, in vivo, po, single oral AMX0035, Fasted (N = 13), healthy subjects, PK analysis subset, read-out: AUC(0-inf), Adj Geo Mean): 84800 ng·h/mL
- AUC(0-t) ([1]; both sexes, human, in vivo, po, single oral AMX0035, Fasted (N = 13), healthy subjects, PK analysis subset, read-out: AUC(0-last), Adj Geo Mean): 83200 ng·h/mL
- Cmax ([1]; both sexes, human, in vivo, po, single oral AMX0035, Fasted (N = 13), healthy subjects, PK analysis subset, read-out: Cmax, Adj Geo Mean): 26600 ng/mL
- AUC(0-inf) ([1]; both sexes, human, in vivo, po, single oral AMX0035, Fed (N = 13), healthy subjects, PK analysis subset, read-out: AUC(0-inf), Adj Geo Mean): 59800 ng·h/mL
- AUC(0-t) ([1]; both sexes, human, in vivo, po, single oral AMX0035, Fed (N = 13), healthy subjects, PK analysis subset, read-out: AUC(0-last), Adj Geo Mean): 58200 ng·h/mL
- Cmax ([1]; both sexes, human, in vivo, po, single oral AMX0035, Fed (N = 13), healthy subjects, PK analysis subset, read-out: Cmax, Adj Geo Mean): 16100 ng/mL
- Cmax ([1]; both sexes, human, in vivo, single dose AMX0035, healthy subjects, fasting, read-out: mean Cmax): 26400 ng/mL
- AUC(0-inf) ([1]; both sexes, human, in vivo, single dose AMX0035 fasted, Geometric Mean, read-out: AUC(0-inf)): 83400 ng·h/mL
- AUC(0-t) ([1]; both sexes, human, in vivo, single dose AMX0035 fasted, Geometric Mean, read-out: AUC(0-last)): 81800 ng·h/mL
- Cmax ([1]; both sexes, human, in vivo, single dose AMX0035 fasted, Geometric Mean, read-out: Cmax): 26400 ng/mL
- half-life ([1]; both sexes, human, in vivo, single dose AMX0035 fasted, Geometric Mean, read-out: T1/2 (converted)): 48.8 min
- AUC(0-inf) ([1]; both sexes, human, in vivo, single dose AMX0035 fasted, Median, read-out: AUC(0-inf)): 80700 ng·h/mL
- AUC(0-t) ([1]; both sexes, human, in vivo, single dose AMX0035 fasted, Median, read-out: AUC(0-last)): 79300 ng·h/mL
- Cmax ([1]; both sexes, human, in vivo, single dose AMX0035 fasted, Median, read-out: Cmax): 27700 ng/mL
- half-life ([1]; both sexes, human, in vivo, single dose AMX0035 fasted, Median, read-out: T1/2 (converted)): 50 min
- AUC(0-inf) ([1]; both sexes, human, in vivo, single dose AMX0035 fed, Geometric Mean, read-out: AUC(0-inf)): 58300 ng·h/mL
- AUC(0-t) ([1]; both sexes, human, in vivo, single dose AMX0035 fed, Geometric Mean, read-out: AUC(0-last)): 56700 ng·h/mL
- Cmax ([1]; both sexes, human, in vivo, single dose AMX0035 fed, Geometric Mean, read-out: Cmax): 15900 ng/mL
- half-life ([1]; both sexes, human, in vivo, single dose AMX0035 fed, Geometric Mean, read-out: T1/2 (converted)): 46.8 min
- AUC(0-inf) ([1]; both sexes, human, in vivo, single dose AMX0035 fed, Median, read-out: AUC(0-inf)): 54500 ng·h/mL
- AUC(0-t) ([1]; both sexes, human, in vivo, single dose AMX0035 fed, Median, read-out: AUC(0-last)): 53100 ng·h/mL
- Cmax ([1]; both sexes, human, in vivo, single dose AMX0035 fed, Median, read-out: Cmax): 16000 ng/mL
- half-life ([1]; both sexes, human, in vivo, single dose AMX0035 fed, Median, read-out: T1/2 (converted)): 47 min
- Tmax ([1]; both sexes, human, in vivo, non parametric analysis, PK analysis subset, Fasted, read-out: Tmax Median): 150 min
- peak exposure to metabolite as % of that for parent ([1]; fasted): approximately 14%
- time from which plasma concentrations were evident ([1]; fasted): 0.25 h
- total exposure to metabolite based on AUC(0-inf) as % of that for parent ([1]; fasted): approximately 35%
- peak exposure to metabolite as % of that for parent ([1]; fed): approximately 34%
- total exposure to metabolite based on AUC(0-inf) as % of that for parent ([1]; fed): approximately 48%
- Frel AUC(0-inf) ([1]; Geometric Mean): 70.606%
- Frel AUC(0-last) ([1]; Geometric Mean): 70.024%
- Frel Cmax ([1]; Geometric Mean): 60.480%
- Frel AUC(0-inf) ([1]; Max): 91.45%
- Frel AUC(0-last) ([1]; Max): 91.27%
- Frel Cmax ([1]; Max): 86.29%
- Frel AUC(0-inf) ([1]; Median): 70.563%
- Frel AUC(0-last) ([1]; Median): 69.952%
- Frel Cmax ([1]; Median): 58.065%
- Frel AUC(0-inf) ([1]; Min): 58.16%
- Frel AUC(0-last) ([1]; Min): 57.31%
- Frel Cmax ([1]; Min): 45.73%
- Tmax Median ([1]; non parametric analysis, PK analysis subset, Fed): 150 min
- AUCextrap [1, 3]: 1.779%
- Lambda-z [1, 3]: 0.8527 h⁻¹
- AUC(0-inf) [1, 4]: 142000 ng·h/mL
- AUC(0-last) [1, 4]: 141000 ng·h/mL
- AUCextrap [1, 4]: 3.18%
- Lambda-z [1, 4]: 0.9999 h⁻¹
- T1/2 [1, 4]: 57 min
- Tmax [1, 4]: 210 min
- AUCextrap [1, 5]: 1.963%
- Lambda-z [1, 5]: 0.8310 h⁻¹
- Tmax [1, 5]: 150 min
- AUC(0-inf) [1, 6]: 45200 ng·h/mL
- AUC(0-last) [1, 6]: 43800 ng·h/mL
- AUCextrap [1, 6]: 1.06%
- Lambda-z [1, 6]: 0.7287 h⁻¹
- T1/2 [1, 6]: 41.4 min
- Tmax [1, 6]: 90 min
- AUCextrap [1, 7]: 2.485%
- Lambda-z [1, 7]: 0.8886 h⁻¹
- AUC(0-inf) ([1]; single dose AMX0035 fed, Max): 130000 ng·h/mL
- AUC(0-last) ([1]; single dose AMX0035 fed, Max): 128000 ng·h/mL
- AUCextrap ([1]; single dose AMX0035 fed, Max): 4.13%
- Lambda-z ([1]; single dose AMX0035 fed, Max): 1.1486 h⁻¹
- T1/2 ([1]; single dose AMX0035 fed, Max): 62.4 min
- Tmax ([1]; single dose AMX0035 fed, Max): 270 min
- AUCextrap [1, 8]: 2.680%
- Lambda-z [1, 8]: 0.8899 h⁻¹
- Tmax [1, 8]: 150 min
- AUC(0-inf) ([1]; single dose AMX0035 fed, Min): 31900 ng·h/mL
- AUC(0-last) ([1]; single dose AMX0035 fed, Min): 30600 ng·h/mL
- AUCextrap ([1]; single dose AMX0035 fed, Min): 1.26%
- Lambda-z ([1]; single dose AMX0035 fed, Min): 0.6696 h⁻¹
- T1/2 ([1]; single dose AMX0035 fed, Min): 36 min
- Tmax ([1]; single dose AMX0035 fed, Min): 120 min
- higher exposure in females compared to males ([1]; single oral dose, fed and fasted): ~31%
- Cmax, Mean ([2]; ALS patients, Fasting): 24100 ng/mL
- Cmax, 2.5th percentile ([2]; ALS patients, Fasting): 10100 ng/mL
- Cmax, 97.5th percentile ([2]; ALS patients, Fasting): 44200 ng/mL
- Cmax, Geometric mean ([2]; ALS patients, Fasting): 22300 ng/mL
- Cmax, Median ([2]; ALS patients, Fasting): 23800 ng/mL
- Cmax, Mean ([2]; ALS patients, Fed): 16600 ng/mL
- Cmax, 2.5th percentile ([2]; ALS patients, Fed): 8160 ng/mL
- Cmax, 97.5th percentile ([2]; ALS patients, Fed): 25300 ng/mL
- Cmax, Geometric mean ([2]; ALS patients, Fed): 15600 ng/mL
- Cmax, Median ([2]; ALS patients, Fed): 16900 ng/mL
- estimated steady-state mean Cmax ([2]; ALS patients, based on population PK): 24100 ng/mL
- V, volume of distribution of PAA ([2]; Bootstrap Median): 56.1 L
- V, volume of distribution of PAA ([2]; Final Model mean estimate): 56.3 L
